From patent US9763991B2, “Composition for the treatment of neurobehavioral disorders” (Cannabis Science International Holding B.V., priority 2013, dated 2017) come the findings set out here.

In data set [1] the test system is C57BL6 mice. As to the kind of experiment: Sleep monitoring after oral dosing (gavage) of Cannabinol in olive oil. The format is in vivo, mouse. Conditions: all 5 doses (0.01-0.5 mg/Kg) by oral gavage in olive oil, single administration at 3 consecutive days, vs pure olive oil. On the procedure:
(§1) The experiment is designed to test a range of concentrations around the equivalent previously tested in humans for single-dose kinetics. Animal experiments were performed following the directive 2010/63/EU on the protection of animals used for scientific purposes.
(§2) 6 groups of 5-6 male C57BL6 of approximately 28 g body weight (range 27-30 g) with the use of one cage for 3 mice: Group 0: Pure Olive Oil, Group 1: CBN at 0.01 mg/Kg body weight, Group 2: CBN at 0.05 mg/Kg body weight, Group 3: CBN at 0.1 mg/Kg body weight, Group 4: CBN at 0.25 mg/Kg body weight and Group 5: CBN at 0.50 mg/Kg body weight
Solutions (named CBN 0, CBN 1, CBN 2, CBN 3, CBN 4, CBN 5, Pure Olive Oil) having different cannabinol concentrations dissolved in olive oil were prepared in sterile conditions, under a laminar flood hood. Pure olive oil was used as a negative control.
The volume that can be administered to the animal should not exceed 10 ml/kg. For a mouse of 20 g the maximum volume corresponds to 0.2 ml. For this procedure a volume of 0.1 ml will be used (half of the maximum volume). 1 ml of each stock solution (cannabinol, CBN 1-5 and pure olive oil, POO) was dispensed into Falcon vials. Prior to the administration, the weight of each mouse was recorded and the appropriate amount of cannabinol solution was determined. […]

The test system of data set [2] is C57BL6 mice. In words: Safety data, body weight and organ weight after oral dosing (gavage) of Cannabinol. The class given is in vivo, mouse. Here is the method:
as §1, §2
The volume that can be administered to the animal should not exceed 10 ml/kg. For a mouse of 20 g the maximum volume corresponds to 0.2 ml. For this procedure a volume of 0.1 ml will be used (half of the maximum volume). 1 ml of each stock solution (cannabinol, CBN 1-5 and pure olive oil, POO) was dispensed into Falcon vials. Prior to the administration, the weight of each mouse was recorded and the appropriate amount of cannabinol solution was determined. For the POO group always 0.1 ml was dispensed in 6 an eppendorf vessel, for the other experimental groups transfer the amounts of CBN 1-5 and POO according to table 2 were used in an eppendorf vial. The amounts to be administered were adjusted depending on mouse group and individual weights.
Monitor the animal for potential complications: Esophagitis (inflammation of the oesophagus), perforation of the oesophagus or trachea, damage to the cardiac sphincter (upper stomach sphincter) insertion of needle and solution into the lungs, lung perforation, damage to the oral cavity, aspiration of solution into the lungs from regurgitation, traumatic injuries related to improper restrain.
The mean weights (and standard deviations) of spleen, liver and kidney from all mice groups at sacrifice are monitored.

As for `CCCCCc1cc(O)c2c(c1)OC(C)(C)c1ccc(C)cc1-2` [Cannabinol], the “number of mice sleeping 30 minutes after administration” value in data set [1] is “increased significantly”. The “aggressive behaviour and clinical alterations (tremors)” value in data set [2] (0.01-0.5 mg/Kg daily by oral gavage, male C57BL6 mice) is “No presence of aggressive behaviour, neither evident clinical alterations”. Besides, the “liver and kidney weights at sacrifice” value in data set [2] (among experimental groups, 0.01-0.5 mg/Kg oral) is listed as “No significant changes”. For the same compound, in data set [2] (within experimental groups with time or among groups at fixed time, 0.01-0.5 mg/Kg oral), the body weight change result is given as “No significant changes”.
